Data reported in the NIST ThermoML archive (doi:10.1016/j.jct.2007.07.002).

Conditions: Gas, double Helmholtz acoustic resonator

O=C=O [carbon dioxide]
Conditions | kinematic viscosity [m2/s] | speed of sound [m/s]
220 K, 195.46 kPa | 2.37e-06 | 231.7
220 K, 226.71 kPa | 2e-06 | 231.05
220 K, 254.44 kPa | 1.79e-06 | 230.53
220 K, 288.21 kPa | 1.56e-06 | 229.81
220 K, 324.47 kPa | 1.37e-06 | 229.07
220 K, 362.71 kPa | 1.22e-06 | 228.29
220 K, 393.15 kPa | 1.12e-06 | 227.64
220 K, 425.51 kPa | 1.03e-06 | 226.95
220 K, 449.74 kPa | 9.7e-07 | 226.42
220 K, 479.78 kPa | 9.02e-07 | 225.76
235 K, 224.78 kPa | 2.31e-06 | 238.87
235 K, 359.42 kPa | 1.42e-06 | 236.69
235 K, 452.88 kPa | 1.11e-06 | 235.12
235 K, 545.18 kPa | 9.13e-07 | 233.52
235 K, 638.46 kPa | 7.66e-07 | 231.87
235 K, 723.88 kPa | 6.71e-07 | 230.31
235 K, 803.31 kPa | 5.95e-07 | 228.81
250 K, 274.2 kPa | 2.15e-06 | 245.57
250 K, 372.33 kPa | 1.57e-06 | 244.25
250 K, 491.25 kPa | 1.17e-06 | 242.62
250 K, 595.84 kPa | 9.53e-07 | 241.15
250 K, 702.28 kPa | 7.98e-07 | 239.62
250 K, 818.89 kPa | 6.75e-07 | 237.9
250 K, 953.03 kPa | 5.71e-07 | 235.87
250 K, 1060.2 kPa | 5.07e-07 | 234.18
250 K, 1177.6 kPa | 4.5e-07 | 232.28
250 K, 1291.6 kPa | 4.03e-07 | 230.37
250 K, 1438.2 kPa | 3.54e-07 | 227.81
270 K, 196.61 kPa | 3.5e-06 | 255.77
270 K, 354.95 kPa | 1.95e-06 | 254.13
270 K, 526.01 kPa | 1.29e-06 | 252.3
270 K, 705.02 kPa | 9.47e-07 | 250.33
270 K, 898.25 kPa | 7.28e-07 | 248.16
270 K, 1076.5 kPa | 5.99e-07 | 246.1
270 K, 1287.1 kPa | 4.91e-07 | 243.58
270 K, 1446.7 kPa | 4.31e-07 | 241.62
270 K, 1630 kPa | 3.76e-07 | 239.29
270 K, 1846 kPa | 3.26e-07 | 236.43
270 K, 2079.6 kPa | 2.84e-07 | 233.19
270 K, 2316.1 kPa | 2.49e-07 | 229.71
270 K, 2509.6 kPa | 2.26e-07 | 226.69
285 K, 371.48 kPa | 2.07e-06 | 260.81
285 K, 575.25 kPa | 1.31e-06 | 258.96
285 K, 787.74 kPa | 9.44e-07 | 257
285 K, 1013 kPa | 7.22e-07 | 254.87
285 K, 1228.5 kPa | 5.87e-07 | 252.79
285 K, 1500.4 kPa | 4.72e-07 | 250.09
285 K, 1707.2 kPa | 4.09e-07 | 247.98
285 K, 1947.2 kPa | 3.52e-07 | 245.46
285 K, 2221.2 kPa | 3.03e-07 | 242.48
285 K, 2559.7 kPa | 2.58e-07 | 238.62
285 K, 2841.9 kPa | 2.27e-07 | 235.23
285 K, 3057.8 kPa | 2.06e-07 | 232.51
300 K, 313.43 kPa | 2.72e-06 | 267.83
300 K, 531.89 kPa | 1.58e-06 | 266.16
300 K, 748.54 kPa | 1.11e-06 | 264.48
300 K, 993.26 kPa | 8.26e-07 | 262.55
300 K, 1237 kPa | 6.54e-07 | 260.6
300 K, 1526.1 kPa | 5.22e-07 | 258.23
300 K, 1747.8 kPa | 4.5e-07 | 256.38
300 K, 1991.5 kPa | 3.9e-07 | 254.3
300 K, 2272.2 kPa | 3.37e-07 | 251.86
300 K, 2577.9 kPa | 2.92e-07 | 249.12
300 K, 2893.9 kPa | 2.57e-07 | 246.21
300 K, 3145.8 kPa | 2.33e-07 | 243.81
304.77 K, 317.81 kPa | 2.78e-06 | 269.84
304.77 K, 527.05 kPa | 1.65e-06 | 268.3
304.77 K, 745.25 kPa | 1.15e-06 | 266.69
304.77 K, 979.77 kPa | 8.66e-07 | 264.94
304.77 K, 1201.7 kPa | 6.98e-07 | 263.26
304.77 K, 1478.9 kPa | 5.59e-07 | 261.12
304.77 K, 1699.4 kPa | 4.82e-07 | 259.4
304.77 K, 1950 kPa | 4.14e-07 | 257.4
304.77 K, 2235.2 kPa | 3.57e-07 | 255.09
304.77 K, 2552.7 kPa | 3.07e-07 | 252.45
304.77 K, 2881 kPa | 2.69e-07 | 249.66
304.77 K, 3135.9 kPa | 2.44e-07 | 247.43
310 K, 342.08 kPa | 2.66e-06 | 271.86
310 K, 552.05 kPa | 1.63e-06 | 270.4
310 K, 773.76 kPa | 1.15e-06 | 268.86
310 K, 1018 kPa | 8.63e-07 | 267.13
310 K, 1259.3 kPa | 6.9e-07 | 265.4
310 K, 1549 kPa | 5.53e-07 | 263.3
310 K, 1786.6 kPa | 4.75e-07 | 261.55
310 K, 2055.6 kPa | 4.08e-07 | 259.54
310 K, 2363 kPa | 3.49e-07 | 257.19
310 K, 2708.8 kPa | 3e-07 | 254.5
310 K, 3078 kPa | 2.6e-07 | 251.56
330 K, 201.27 kPa | 5.17e-06 | 280.89
330 K, 402.42 kPa | 2.55e-06 | 279.73
330 K, 626.86 kPa | 1.62e-06 | 278.46
330 K, 846.53 kPa | 1.19e-06 | 277.21
330 K, 1059.3 kPa | 9.44e-07 | 276
330 K, 1333 kPa | 7.43e-07 | 274.43
330 K, 1559.3 kPa | 6.3e-07 | 273.12
330 K, 1813.1 kPa | 5.37e-07 | 271.64
330 K, 2103.2 kPa | 4.59e-07 | 269.94
330 K, 2423.4 kPa | 3.94e-07 | 268.06
330 K, 2778.7 kPa | 3.4e-07 | 265.94
330 K, 3067.6 kPa | 3.06e-07 | 264.21
350 K, 234.16 kPa | 4.97e-06 | 288.49
350 K, 440.84 kPa | 2.61e-06 | 287.51
350 K, 660.1 kPa | 1.73e-06 | 286.5
350 K, 905.02 kPa | 1.25e-06 | 285.36
350 K, 1143.5 kPa | 9.86e-07 | 284.25
350 K, 1347.8 kPa | 8.31e-07 | 283.31
350 K, 1584.4 kPa | 7.03e-07 | 282.2
350 K, 1873 kPa | 5.9e-07 | 280.86
350 K, 2228.5 kPa | 4.92e-07 | 279.21
350 K, 2447.3 kPa | 4.45e-07 | 278.19
350 K, 2827.2 kPa | 3.82e-07 | 276.43
350 K, 3133.8 kPa | 3.42e-07 | 275.01
370 K, 335.49 kPa | 3.82e-06 | 295.63
370 K, 537.7 kPa | 2.37e-06 | 294.86
370 K, 749.31 kPa | 1.7e-06 | 294.05
370 K, 964.83 kPa | 1.31e-06 | 293.24
370 K, 1228.5 kPa | 1.03e-06 | 292.24
370 K, 1449.3 kPa | 8.66e-07 | 291.41
370 K, 1714.1 kPa | 7.29e-07 | 290.42
370 K, 2019 kPa | 6.15e-07 | 289.27
370 K, 2382.7 kPa | 5.18e-07 | 287.93
370 K, 2771.7 kPa | 4.42e-07 | 286.5
370 K, 3095.9 kPa | 3.93e-07 | 285.31
